{"source": "patent US20140079836A1", "about": "“METHODS AND COMPOSITIONS FOR ALTERING HEALTH, WELLBEING, AND LIFESPAN” (LifeSpan Extension, LLC, priority 2008, published 2014)", "test_system": "entire human genome (gene expression profile)", "assay": "Agilent whole human genome array, skin fibroblasts AG07999, antioxidant with or without UV", "assay_type": "cell-based", "method": "Cell cultures: A human skin fibroblast cell culture was obtained through the Coriell Cell Repository from the National Institute on Aging Cell Repository. […] Culture media: Cells were grown in Minimal Essential Medium supplemented with 10% fetal bovine serum, 2 mM L-glutamine, 2 mM Glutamax I. […] All cultures were incubated at 37° C. with 5% CO2 in a humidified chamber. […] On Day 5 after 24 hours of exposure to test conditions, the cells were isolated and the RNA isolated using the RT^2q PCR-grade RNA isolation kit (Superarray Bioscience Corporation). […] Analysis of Agilent Whole Human Genome Arrays: RNA taken from both samples was sent to Cogenics, Inc. Morrisville, N.C. Cogenics, Inc. is a leading, state-of-the-art, microarray service provider that facilitates and accelerates transcriptome profiling and gene discovery processes for industrial and academic researchers. Cogenics' procedure for processing samples is as follows: RNA samples are received and analyzed by Cogenics, Inc. using rigorous standardized procedures that are designed to ensure quality and chain of custody. Each sample undergoes a thorough quality analysis using an Agilent Bioanalyzer microfluidics device, and is precisely quantified using a Nanodrop-1000 spectro-photometer. When the Agilent Oligonucleotide Microarray Platform is utilized, samples are fluorescently labeled using the Agilent Low-Input Linear Amplification Kit. Upon completion of this process, the labeled cRNA products are assessed using the same processes described above. These labeled samples are then fragmented and hybridized to oligonucleotide microarrays. The microarrays are washed and then scanned using an Agilent DNA Microarray Scanner with Sure Scan technology. Data is extracted from the images produced by the scanner using Agilent's Feature Extraction software. At this point, the scanned image is visually inspected for defects, and the extracted data is statistically analyzed to ensure quality of the assay. Extracted data and images can be loaded into Rosetta Resolver Gene Expression Data Analysis System for in-depth analysis, both from a quality standpoint, as well as to develop biological understanding. […] A table was generated and provided as a tab-delimited text file. This file will contain the log ratio, fold-change, log ratio p-value, etc. for every transcript measured by the microarray. Using Rosetta Resolver, a single ratio comparison was compiled based on the results of the two fluorophore reversal hybridization performed in the context of this project. The ratios were calculated such that the Tx sample was in the numerator and the UnTx sample was in the denominator. A table was generated, saved as tab-delimited text files, and is provided on the DVD that accompanied this report in the “Objective—1” subdirectory or the “Data_Analysis” directory. These files contain the log ratio, fold-change, log ratio p-value, etc. for every transcript present on the microarray. […] A table for will be generated and provided as a tab-delimited text file. The file will contain the log ratio, fold-change, log ratio p-value, etc. for only the differentially expressed transcripts within the context of the comparison. […] These criteria were applied to the comparison made in Objective 1. A table was generated, saved as tab-delimited text files, and is provided on the DVD that accompanied this report in the “Objective—1” subdirectory or the “Data_Analysis” directory. […] Cell cultures: A human skin fibroblast cell culture (or cultures) will be obtained through the Coriell Cell Repository from the National Institute on Aging Cell Repository. […] Culture media: Cells will be grown in Minimal Essential Medium supplemented with 10% fetal bovine serum, 2 mM L-glutamine, 2 mM Glutamax I.", "data": [{"smiles": "COC1=C(OC)C(=O)C(CCCCCCCCCCO)=C(C)C1=O", "note": "[Idebenone, 6-(10-hydroxydecyl)-2,3-dimethoxy-5-methyl-1,4-benzoquin-one]", "values": [{"measurement": "STOML2 Expression", "setting": "Alone", "result": 1.2}, {"measurement": "TAGLN Expression", "setting": "Alone", "result": "−1.2"}, {"measurement": "TBXA2R Expression", "setting": "Alone", "result": "−1.1"}, {"measurement": "TEP1 Expression", "setting": "Alone", "result": 1.0}, {"measurement": "TERF1 Expression", "setting": "Alone", "result": "−1.0"}, {"measurement": "TERT expression", "setting": "Alone", "result": 1.1}, {"measurement": "TFAP2A Expression", "setting": "Alone", "result": "−1.2"}, {"measurement": "TFAP2B Expression", "setting": "Alone", "result": 1.0}, {"measurement": "TFAP2C Expression", "setting": "Alone", "result": "−1.1"}, {"measurement": "TFRC Expression", "setting": "Alone", "result": 1.1}, {"measurement": "TGFA Expression", "setting": "Alone", "result": 1.0}, {"measurement": "TGFB1 Expression", "setting": "Alone", "result": 1.0}, {"measurement": "TGFBR2 Expression", "setting": "Alone", "result": "−1.3"}, {"measurement": "TGM1 Expression", "setting": "Alone", "result": "−1.1"}, {"measurement": "TH Expression", "setting": "Alone", "result": 1.6}, {"measurement": "THBS1 Expression", "setting": "Alone", "result": "−1.1"}, {"measurement": "TIMP1 Expression", "setting": "Alone", "result": "−1.4"}, {"measurement": "TIMP2 Expression", "setting": "Alone", "result": "−1.4"}, {"measurement": "TK1 Expression", "setting": "Alone", "result": 1.6}, {"measurement": "TM4SF1 Expression", "setting": "Alone", "result": "−1.1"}, {"measurement": "TNF Expression", "setting": "Alone", "result": 1.1}, {"measurement": "TNFRSF1A Expression", "setting": "Alone", "result": "−1.1"}, {"measurement": "TNFRSF1B Expression", "setting": "Alone", "result": "−1.8"}, {"measurement": "TNFRSF11B Expression", "setting": "Alone", "result": 1.0}, {"measurement": "TOP2A Expression", "setting": "Alone", "result": 1.6}, {"measurement": "TYMS Expression", "setting": "Alone", "result": 1.2}, {"measurement": "UBE2C Expression", "setting": "Alone", "result": 1.5}, {"measurement": "UBE2V1 Expression", "setting": "Alone", "result": "−1.1"}, {"measurement": "VEGFC Expression", "setting": "Alone", "result": 1.0}, {"measurement": "XRCC6BP1 Expression", "setting": "Alone", "result": 1.1}, {"measurement": "YWHAZ Expression", "setting": "Alone", "result": 1.0}, {"measurement": "AKT1 Expression", "setting": "Idebenone + UVB", "result": "−1.6"}, {"measurement": "ALOX12 Expression", "setting": "Idebenone + UVB", "result": 1.8}, {"measurement": "APOE Expression", "setting": "Idebenone + UVB", "result": "−1.2"}, {"measurement": "ARG2 Expression", "setting": "Idebenone + UVB", "result": 1.2}, {"measurement": "ATOX1 Expression", "setting": "Idebenone + UVB", "result": "−1.0"}, {"measurement": "CAMK1 Expression", "setting": "Idebenone + UVB", "result": "−1.7"}, {"measurement": "CAT Expression", "setting": "Idebenone + UVB", "result": "−1.3"}, {"measurement": "CCNA1 Expression", "setting": "Idebenone + UVB", "result": 1.0}, {"measurement": "CCS Expression", "setting": "Idebenone + UVB", "result": "−1.2"}, {"measurement": "CDKN1A Expression", "setting": "Idebenone + UVB", "result": "−1.1"}, {"measurement": "CYBA Expression", "setting": "Idebenone + UVB", "result": "−1.2"}, {"measurement": "CYGB Expression", "setting": "Idebenone + UVB", "result": "−1.4"}, {"measurement": "DDAH2 Expression", "setting": "Idebenone + UVB", "result": 1.0}, {"measurement": "DLG4 Expression", "setting": "Idebenone + UVB", "result": "−1.0"}, {"measurement": "DNCL1 Expression", "setting": "Idebenone + UVB", "result": 1.0}, {"measurement": "DND1 Expression", "setting": "Idebenone + UVB", "result": "−1.0"}, {"measurement": "DUOX1 Expression", "setting": "Idebenone + UVB", "result": 1.2}, {"measurement": "DUOX2 Expression", "setting": "Idebenone + UVB", "result": 2.0}, {"measurement": "DUSP1 Expression", "setting": "Idebenone + UVB", "result": 1.2}, {"measurement": "EGFR Expression", "setting": "Idebenone + UVB", "result": "−1.0"}, {"measurement": "EPX Expression", "setting": "Idebenone + UVB", "result": "−2.2"}, {"measurement": "FOXM1 Expression", "setting": "Idebenone + UVB", "result": "−1.5"}, {"measurement": "GCH1 Expression", "setting": "Idebenone + UVB", "result": "−1.7"}, {"measurement": "GCHFR Expression", "setting": "Idebenone + UVB", "result": 1.0}, {"measurement": "GLA Expression", "setting": "Idebenone + UVB", "result": 1.0}, {"measurement": "GLRX2 Expression", "setting": "Idebenone + UVB", "result": 1.0}, {"measurement": "GPR156 Expression", "setting": "Idebenone + UVB", "result": 1.3}, {"measurement": "GPX1 Expression", "setting": "Idebenone + UVB", "result": "−1.1"}, {"measurement": "GPX2 Expression", "setting": "Idebenone + UVB", "result": "−1.2"}, {"measurement": "GPX3 Expression", "setting": "Idebenone + UVB", "result": "−1.2"}, {"measurement": "GPX4 Expression", "setting": "Idebenone + UVB", "result": "−1.1"}, {"measurement": "GPX5 Expression", "setting": "Idebenone + UVB", "result": 1.4}, {"measurement": "GRIN2D Expression", "setting": "Idebenone + UVB", "result": 1.1}, {"measurement": "GSS Expression", "setting": "Idebenone + UVB", "result": "−1.1"}, {"measurement": "HSP90AB1 Expression", "setting": "Idebenone + UVB", "result": "−1.3"}, {"measurement": "IL8 Expression", "setting": "Idebenone + UVB", "result": 1.0}, {"measurement": "IL10 Expression", "setting": "Idebenone + UVB", "result": 1.1}, {"measurement": "INS Expression", "setting": "Idebenone + UVB", "result": 1.1}, {"measurement": "JUN Expression", "setting": "Idebenone + UVB", "result": "−1.1"}, {"measurement": "KRT1 Expression", "setting": "Idebenone + UVB", "result": 1.0}, {"measurement": "LPO Expression", "setting": "Idebenone + UVB", "result": 1.1}, {"measurement": "MBL2 Expression", "setting": "Idebenone + UVB", "result": 1.0}, {"measurement": "MPO Expression", "setting": "Idebenone + UVB", "result": 1.0}, {"measurement": "MSRA Expression", "setting": "Idebenone + UVB", "result": 1.2}, {"measurement": "MT3 Expression", "setting": "Idebenone + UVB", "result": 1.1}, {"measurement": "MTL5 Expression", "setting": "Idebenone + UVB", "result": "−1.1"}, {"measurement": "MYB Expression", "setting": "Idebenone + UVB", "result": 1.0}, {"measurement": "NCF1 Expression", "setting": "Idebenone + UVB", "result": "−1.2"}, {"measurement": "NCF2 Expression", "setting": "Idebenone + UVB", "result": 1.6}, {"measurement": "NME5 Expression", "setting": "Idebenone + UVB", "result": 1.2}, {"measurement": "NOS1 Expression", "setting": "Idebenone + UVB", "result": 1.2}, {"measurement": "NOS2A Expression", "setting": "Idebenone + UVB", "result": 1.1}, {"measurement": "NOS3 Expression", "setting": "Idebenone + UVB", "result": "−1.0"}, {"measurement": "NOSIP Expression", "setting": "Idebenone + UVB", "result": "−1.2"}, {"measurement": "NOSTRIN Expression", "setting": "Idebenone + UVB", "result": 1.0}, {"measurement": "NOX5 Expression", "setting": "Idebenone + UVB", "result": "−1.2"}, {"measurement": "NQO1 Expression", "setting": "Idebenone + UVB", "result": "−1.2"}, {"measurement": "NRF1 Expression", "setting": "Idebenone + UVB", "result": "−1.4"}, {"measurement": "NUDT1 Expression", "setting": "Idebenone + UVB", "result": "−1.1"}, {"measurement": "OXR1 Expression", "setting": "Idebenone + UVB", "result": 1.1}, {"measurement": "PGC Expression", "setting": "Idebenone + UVB", "result": 1.2}, {"measurement": "PKAR1B Expression", "setting": "Idebenone + UVB", "result": "−1.0"}, {"measurement": "PNKP Expression", "setting": "Idebenone + UVB", "result": "−1.3"}, {"measurement": "PP3CA Expression", "setting": "Idebenone + UVB", "result": 1.1}, {"measurement": "PRDX2 Expression", "setting": "Idebenone + UVB", "result": 1.0}, {"measurement": "PRDX6 Expression", "setting": "Idebenone + UVB", "result": 1.1}, {"measurement": "PREX1 Expression", "setting": "Idebenone + UVB", "result": "−1.1"}, {"measurement": "PRG3 Expression", "setting": "Idebenone + UVB", "result": "−1.0"}, {"measurement": "PRKCA Expression", "setting": "Idebenone + UVB", "result": "−1.1"}, {"measurement": "PRNP Expression", "setting": "Idebenone + UVB", "result": 1.0}, {"measurement": "RNF7 Expression", "setting": "Idebenone + UVB", "result": "−1.0"}, {"measurement": "SCARA3 Expression", "setting": "Idebenone + UVB", "result": "−1.0"}, {"measurement": "SCRT2 Expression", "setting": "Idebenone + UVB", "result": 1.3}, {"measurement": "SELS Expression", "setting": "Idebenone + UVB", "result": 1.0}, {"measurement": "SEPP1 Expression", "setting": "Idebenone + UVB", "result": 1.0}, {"measurement": "SGK2 Expression", "setting": "Idebenone + UVB", "result": "−1.2"}, {"measurement": "SIRT2 Expression", "setting": "Idebenone + UVB", "result": "−1.1"}, {"measurement": "SOD1 Expression", "setting": "Idebenone + UVB", "result": "−1.1"}, {"measurement": "SOD2 Expression", "setting": "Idebenone + UVB", "result": 1.0}, {"measurement": "SOD3 Expression", "setting": "Idebenone + UVB", "result": 1.1}, {"measurement": "SRXN1 Expression", "setting": "Idebenone + UVB", "result": "−1.1"}]}]}
